In experiment [1] the target is T1, human recombinant A3 receptor (Homo sapiens, UniProt P0DMS8).
T1 construct: expressed in transfected cells; host or cells: HeLa (stably transfected)
T1 sequence (P0DMS8 1-318): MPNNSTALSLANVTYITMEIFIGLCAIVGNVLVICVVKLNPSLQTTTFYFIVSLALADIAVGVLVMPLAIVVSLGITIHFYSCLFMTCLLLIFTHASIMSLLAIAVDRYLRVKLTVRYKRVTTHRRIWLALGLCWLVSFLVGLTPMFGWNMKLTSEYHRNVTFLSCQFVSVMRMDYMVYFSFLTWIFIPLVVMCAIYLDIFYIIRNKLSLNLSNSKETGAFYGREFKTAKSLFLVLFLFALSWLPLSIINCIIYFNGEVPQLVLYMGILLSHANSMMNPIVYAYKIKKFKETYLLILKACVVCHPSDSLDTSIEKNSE
Description: Adenosine 3 receptor subtype competition radioligand binding assay. Here is the method:
Adenosine 3 Receptor Subtype Competition Radioligand Binding Assay
Membranes were prepared from Hela cells stably transfected with the human recombinant A3 receptor. For membrane preparation, cells were collected from tissue culture plates using a cell scraper, resuspended in 10-15 ml of homogenization buffer (Tris-HCl 5 mM, EDTA 2 mM), homogenized, and centrifuged at 1.000 g. for 10 min. at 4° C. The supernatant was then recovered and centrifuged at 50.000 g for 1 h. at 4° C. Finally, the pellet was resuspended in 100-500 μl of storage buffer (Tris-HCl 50 mM pH 7.4) where the total protein content was determined.
Competition assays were carried out incubating 100 μg of A3-membranes, 30 nM [^3H]-NECA (Amersham) as radioligand and 50 μM of unlabeled NECA ligand, in a total volume of 100 μl of buffer (Tris-HCl 50 mM pH 7.4, MgCl2 5 mM, EDTA 1 mM, 2 U/ml adenosine deaminase) for 3 hours at 25° C. Samples were filtered 4 times with 250 μl of buffer (Tris-HCl 50 mM pH 7.4) using plates (Millipore MAFBN0B50) preincubated for 15 min. in 250 μl of the same buffer. Samples were counted using 30 μl of LSC Universol (ICN) in a Wallac 1450 Microbeta counter. Non specific binding was tested using 100 μM of R-PIA.

Experiment [2] deals with T2, human recombinant A2A receptor (Homo sapiens, UniProt P29274).
T2 construct: expressed in transfected cells; host or cells: HeLa (stably transfected)
The experiment in a line: Adenosine 2A receptor subtype competition radioligand binding assay. The conditions noted are these: [3H]-ZM241385, Hela cell membranes. As to the method:
Adenosine 2A Receptor Subtype Competition Radioligand Binding Assay
Membranes were prepared from Hela cells stably transfected with the human recombinant A2A receptor. For membrane preparation, cells were collected from tissue culture plates using a cell scraper, resuspended in 10-15 ml homogenization buffer (Tris-HCl 5 mM, EDTA 2 mM), homogenized, and centrifuged at 1.000 g. for 10 min. at 4° C. The supernatant was then recovered and centrifuged at 50.000 g for 1 h. at 4° C. Finally, the pellet was resuspended in 100-500 μl storage buffer (Tris-HCl 50 mM pH 7.4) where the total protein content was determined.
Competition assays were carried out incubating 5 μg of A2A-membranes, 3 nM [^3H]-ZM241385 (Tocris) as radioligand and 50 μM of unlabeled ZM241385 ligand, in a total volume of 100 μl of buffer (TrisHCl 50 μM pH 7.4, EDTA 1 mM, MgCl2 10 mM, 2 U/ml adenosin deaminase) for 30 minutes at 25° C. Samples were then filtered and washed 4 times with 250 μl of buffer (TrisHCl 50 μM pH 7.4, EDTA 1 mM, MgCl2 10 mM) using plates (Millipore MAFCN0B50) preincubated for 15 min. in 250 μl of the same buffer. Samples were counted using 30 μl of LSC Universol (ICN) in a Wallac 1450 Microbeta counter. Non specific binding was tested using 50 μM NECA.

For experiment [3], the target named is T3, human recombinant A1 receptors (Homo sapiens, UniProt P30542).
T3 construct: host or cells: CHO-K1
T3 sequence (P30542 1-326): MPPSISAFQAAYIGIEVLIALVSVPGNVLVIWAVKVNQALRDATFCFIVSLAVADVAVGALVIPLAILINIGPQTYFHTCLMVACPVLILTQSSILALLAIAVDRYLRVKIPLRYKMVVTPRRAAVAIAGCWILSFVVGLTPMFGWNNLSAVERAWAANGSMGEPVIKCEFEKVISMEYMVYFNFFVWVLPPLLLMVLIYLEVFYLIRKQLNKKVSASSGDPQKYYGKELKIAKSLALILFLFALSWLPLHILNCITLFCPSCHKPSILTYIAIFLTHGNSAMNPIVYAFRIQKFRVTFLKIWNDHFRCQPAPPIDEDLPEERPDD
The experiment in a line: Adenosine 1 receptor subtype competition radioligand binding assay. The conditions noted are these: 1 h, [3H]-DPCPX, CHO-K1 membranes, read-out: Binding human A1, % @ 1 μM (column headed Ki (nM)). As to the method:
Adenosine I Receptor Subtype Competition Radioligand Binding Assay
CHO-K1 cells expressing human recombinant A1 receptors were purchased from Euroscreen (Belgium). For membrane preparation, cells were collected from tissue culture plates using a cell scraper, resuspended in 10-15 ml of homogenization buffer (Tris-HCl 15 mM pH 7.5, MgCl2 2 mM, EDTA 0.3 mM, EGTA 1 mM), homogenized, and centrifuged at 40.000 g for 25 minutes. The resulting pellet was resuspended in the same buffer and centrifuged again for 25 minutes. Finally, the pellet was resuspended in 500 μl of storage buffer (Tris-HCl 7.5 mM pH 7.5, MgCl2 12.5 mM, EDTA 0.3 mM, EGTA 1 mM, sucrose 250 mM) where the total protein content was determined.
Competition assays were carried out incubating 15 μg of A1-membrane preparations, 2 nM [^3H]-DPCPX (Amersham) as radioligand and 10 μM of unlabeled DPCPX ligand, in a total volume of 100 μl of buffer (Hepes 20 mM pH 7.4, NaCl 100 mM, MgCl2 10 mM, 2 U/ml adenosin deaminase) for 1 h at 25° C. Samples were filtered and washed 4 times with 250 μl of buffer (Hepes 20 mM pH 7.4, NaCl 100 mM, MgCl2 10 mM) using plates (Millipore MAFCN0B50) preincubated for 15 min. in 250 μl of the same buffer. Samples were counted using 30 μl of LSC Universol (ICN) in a Wallac 1450 Microbeta counter. Non specific binding was tested using 10 μM R-PIA.

The mark [4] stands for this setting: [3H]-NECA, Hela cell membranes, read-out: Binding human A3 Ki.

Eight compounds from patent US20070265273A1, “Pyrimidin-2-Amine Derivatives and Their Use as A2b Adenosine Receptor Antagonists” (priority 2003, published 2007) can be followed below.

Read-outs that look alike come from different tables or passages of the source.

The Ki is a measure of affinity in units of concentration, obtained from inhibition or displacement.

T2 sequence (P29274 whole entry): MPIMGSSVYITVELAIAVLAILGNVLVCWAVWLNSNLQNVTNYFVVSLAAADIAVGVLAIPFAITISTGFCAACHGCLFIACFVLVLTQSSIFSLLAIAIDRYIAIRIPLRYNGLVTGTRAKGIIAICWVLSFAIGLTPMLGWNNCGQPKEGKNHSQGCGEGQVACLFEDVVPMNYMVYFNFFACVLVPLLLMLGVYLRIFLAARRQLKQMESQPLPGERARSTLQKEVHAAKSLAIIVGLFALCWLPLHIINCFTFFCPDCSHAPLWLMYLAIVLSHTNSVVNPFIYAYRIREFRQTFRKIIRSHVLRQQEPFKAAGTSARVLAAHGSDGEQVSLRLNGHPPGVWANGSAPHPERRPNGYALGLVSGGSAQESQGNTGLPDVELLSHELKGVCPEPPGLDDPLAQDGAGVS

For `c1cncc(Nc2ncc(-c3ccncn3)c(-c3ccco3)n2)c1` [Example 1, 4′-(2-Furyl)-N-pyridin-3-yl-4,5′-bipyrimidin-2′-amine], the Ki in experiment [1] (setting [4]) came out at 1100 nM; in experiment [2], 2540 nM. In experiment [3], the inhibition at 1 µM is 14%.

For the compound `COc1ccc(Nc2ncc(-c3ccncn3)c(-c3ccco3)n2)cn1` [Example 2, 4′-(2-Furyl)-N-(6-methoxypyridin-3-yl)-4,5′-bipyrimidin-2′-amine], in experiment [1], the Ki was 4320 nM. Besides, the “Binding human A2A, % @ 1 μM (column headed Ki (nM))” value (from here on “Binding human A2A, % @ 1 μM”) in experiment [2] amounted to 14% @ 1 μM. Besides, the inhibition at 1 µM in experiment [3] was 5%.

For the compound `Fc1ccc(Nc2ncc(-c3ccncn3)c(-c3ccco3)n2)cn1` [Example 4, N-(6-Fluoropyridin-3-yl)-4′-(2-furyl)-4,5′-bipyrimidin-2′-amine], in experiment [1] (setting [4]), the Ki was 1690 nM. For the same compound, the “Binding human A2A, % @ 1 μM” value in experiment [2] turned out to be 21% @ 1 μM. In addition, in experiment [3], the inhibition at 1 µM is 30%.

As for `c1cncc(Nc2ncc(-c3ccncn3)c(-c3cccs3)n2)c1` [Example 6, N-Pyridin-3-yl-4′-thien-2-yl-4,5′-bipyrimidin-2′-amine], the Ki amounted to 310 nM in experiment [1] (setting [4]) and 620 nM in experiment [2]. In experiment [3], the inhibition at 1 µM was determined as 31%.

Turning to `c1cncc(Nc2ncc(-c3ccnnc3)c(-c3ccco3)n2)c1` [Example 11, 4-(2-Furyl)-5-pyridazin-4-yl-N-pyridin-3-ylpyrimidin-2-amine], the Ki in experiment [1] (setting [4]) was determined as 407 nM. The “Binding human A2A, % @ 1 μM” value in experiment [2] turned out to be 17% @ 1 μM. For the same compound, the inhibition at 1 µM in experiment [3] came out at 23%.

With `[O-][n+]1cccc(Nc2ncc(-c3ccncn3)c(-c3ccco3)n2)c1` [Example 12, 4′-(2-Furyl)-N-(1-oxidopyridin-3-yl)-4,5′-bipyrimidin-2′-amine], the Ki in experiment [1] (setting [4]) worked out at 846 nM. Further, the “Binding human A2A, % @ 1 μM” value in experiment [2] is reported as 7% @ 1 μM. Besides, the inhibition at 1 µM in experiment [3] turned out to be 4%.

On to `c1coc(-c2nc(Nc3cncnc3)ncc2-c2ccncn2)c1` [Example 13, 4′-(2-Furyl)-N-pyrimidin-5-yl-4,5′-bipyrimidin-2′-amine], for which the Ki in experiment [1] (setting [4]) was found to be 1440 nM. For the same compound, the “Binding human A2A, % @ 1 μM” value in experiment [2] is on record as 15% @ 1 μM. The inhibition at 1 µM in experiment [3] amounted to 3%.

In the case of `O=c1ccc(Nc2ncc(-c3ccncn3)c(-c3ccco3)n2)c[nH]1` [Example 21, 5-{[4′-(2-Furyl)-4,5′-bipyrimidin-2′-yl]amino}pyridin-2(1H)-one], the Ki in experiment [1] (setting [4]) was determined as 2790 nM. Also, the “Binding human A2A, % @ 1 μM” value in experiment [2] worked out at 0% @ 1 μM. For the same compound, the inhibition at 1 µM in experiment [3] is 0%.
